According to patent publication US8592462B2, “Pirfenidone treatment for patients with atypical liver function” (Intermune, Inc., priority 2008, dated 2013):

Assays:
[1] = Study of 345 idiopathic pulmonary fibrosis patients on pirfenidone 2403 mg/day: liver function test (AST/ALT) abnormalities and response to dosing regimen; type: in vivo; set-up: key to Grade of AST or ALT abnormality after dose modification / Grade of ALT after dose modification / Grade of liver function test at resolution: 0: WNL; 1: >ULN-2.5 × ULN; >2.5-5 × ULN; 3: >5-20 × ULN; 4: >20 × ULN
Procedure: Patients begin pirfenidone treatment by receiving escalating doses of pirfenidone over a period of 15 days until the full maintenance dose is reached. Specifically, from days 1 to 7, patients are administered one capsule of 267 mg pirfenidone three times per day. During days 8 to 14, patients receive two capsules of 267 mg pirfenidone three times per day. From day 15 onward, patients are treated with three capsules of 267 mg pirfenidone three times per day. Pirfenidone is administered orally, and each dose should be taken with food. If the patient is unable to eat, then the pirfenidone dose should be taken with milk or juice (excluding grapefruit juice).
Once the full maintenance dose is reached, pirfenidone is administered orally to patients three times per day to provide a daily dose of 2403 mg pirfenidone. Each of the three doses of 801 mg pirfenidone includes three capsules of 267 mg pirfenidone each. The contents of the pirfenidone 267 mg capsules are pirfenidone (82.15%); croscarmellose sodium (8.15%); microcrystalline cellulose (7.39%); povidine, USP, EP (1.85%); and magnesium stearate (0.46%).
Patients are treated with pirfenidone for up to 72 weeks. Some patients are treated longer than 72 weeks. At weeks 2, 4, 6, 12, and every 12 weeks (±2 weeks) thereafter during the treatment period, with the exception of week 72 and the treatment completion visit, patients are examined and histories are collected as detailed in the steps below.
4. Clinical laboratory tests are performed, including hematology, serum chemistries, pregnancy tests for women of childbearing capacity, and urinalysis with microscopic examination.
Patients were treated with pirfenidone in accordance with Example 1. […] As described in Example 1, serum chemistry tests were performed at scheduled intervals during the treatment period to monitor various parameters, including biomarkers of liver function such as alanine transaminase (ALT), aspartate transaminase (AST), bilirubin, alkaline phosphate (ALP), and gamma-glutamyl transferase (GGT).
The patient continued to receive the full target dose of 2403 mg/day. While receiving the full target dose, the patient was monitored for AST, ALT, and bilirubin levels.
In one patient, study drug dose was reduced to 1602 mg/day for the remainder of study participation (from Day 51 to Day 602), and the Grade 1 AST or ALT abnormality returned to Grade 0. For the second patient, study drug dose was reduced to 1602 mg/day and then increased to 2403 mg/day for remainder of study participation, and ALT returned to Grade 0. The third patient had study drug dose reduced to 801 mg/day, ultimately completing study at 1602 mg/day, at which time ALT returned to Grade 0. The remaining patients (46 patients) received no dose modification.

[2] = Gamma-glutamyl transferase observed in patients receiving pirfenidone; type: in vivo; conditions: some patients receiving pirfenidone
Source text: In some embodiments, the biomarker of liver function is alanine transaminase, aspartate transaminase, bilirubin, and/or alkaline phosphatase. […] In any of the embodiments described herein, biomarkers of liver function can exclude gamma-glutamyl transferase. In another embodiment, the abnormal level of alanine transaminase, aspartate transaminase, or alkaline phosphatase is greater than about 2.5-fold increased compared to the upper limit of normal (ULN). In a related embodiment, the abnormal level of alanine transaminase, aspartate transaminase, or alkaline phosphatase is greater than about 2.5- to about 5-fold increased compared to the upper limit of normal (ULN), i.e. a “liver function Grade 2 abnormality”. In some embodiments, the abnormal level of bilirubin is greater than about 1.5- to about 3-fold increased compared to the upper limit of normal (ULN), i.e., a “liver function Grade 2 abnormality”.

[3] = IPF patients, compassionate use; cited from earlier work
[4] = one year treatment, chronic pulmonary fibrosis; cited from earlier work

With `Cc1ccc(=O)n(-c2ccccc2)c1` [pirfenidone, 5-methyl-1-phenyl-2-(1H)-pyridone] the “Grade of ALT after dose modification” value ([1]; Grade 1 patient, dose reduced to 801 mg/day, completing study at 1602 mg/day) was 0, the “Grade of AST or ALT abnormality after dose modification” value ([1]; Grade 1 patient, dose reduced to 1602 mg/day for remainder of study (Day 51 to Day 602)) was 0 and the “Grade of ALT after dose modification” value ([1]; Grade 1 patient, dose reduced to 1602 mg/day, then increased to 2403 mg/day for remainder of study) was 0. The “Grade of elevation at end of study” value ([1]; Grade 2 patient continued on 2403 mg/day, history of steatosis, Grade 1 before treatment, dose reduced for unrelated reasons (rash, diarrhea)) was 1 (>ULN-2.5 × ULN), the “Grade of AST elevation at the last documented assessment” value ([1]; Grade 2 patient, no dose modification, Grade 1 AST and ALT at baseline) was 1 (>ULN-2.5 × ULN) and the “Grade of liver function test at resolution” value ([1]; Grade 2 patient, continued full daily dose of 2403 mg/day) was 0. For the same compound, the “transaminase levels after re-escalation” value ([1]; Grade 2 patient, treatment temporarily discontinued for acute cerebral artery occlusion, escalated back to 2403 mg/day) was “returned to normal”, the “Grade of abnormality at last documented values” ([1]; Grade 3 patient with Grade 1 at screening and/or baseline, discontinued for lung transplant) was 1 (>ULN-2.5 × ULN) and the “AST and ALT elevations at the last documented value” ([1]; Grade 3 patient with Grade 1 at screening and/or baseline, study drug interrupted, then discontinued) was “normalized”. For the same compound, the “patients developing a Grade 2 liver function test abnormality in AST and/or ALT levels” value ([1]; after pirfenidone 2403 mg/day) was “Fifteen”, the “patients developing Grade 3 liver function abnormality in AST and/or ALT levels” value ([1]; after pirfenidone administration) was “Four” and the “patients exhibiting a Grade 1 elevation in AST or ALT levels after pirfenidone administration” value ([1]; of 345 IPF patients, 2403 mg/day, patients without a baseline liver function abnormality) was 49 patients. For the same compound, the “patients with Grade 1 liver function test elevation having a treatment emergent adverse event of increased AST or ALT” value ([1]; of the 49 Grade 1 patients) was “three”, the “patients with Grade 2 abnormality with reported treatment emergent adverse events of increased AST or ALT or hepatitis” value ([1]; of the fifteen Grade 2 patients) was 12 patients and the “patients who discontinued study drug for elevated liver function tests” value ([1]; of the four Grade 3 patients) was “Two”. The “patients who discontinued treatment due to abnormal liver function tests in AST and/or ALT levels” value ([1]; of the twelve Grade 2 patients with adverse event, Grade 2 AST coincided with Grade 3 ALT) was “One”, the “outcome of rechallenge with the full dose” value ([1]; one of the seven Grade 2 patients with permanent dose reduction, rechallenged at 2403 mg/day) was “recurrence of Grade 2 elevation in ALT levels” and the “transaminases at study completion” value ([1]; seven Grade 2 patients with permanent dose reduction (3 at 801 mg/day, 4 at 1602 mg/day)) was “resolution of transaminases, except for one patient that had a Grade 1 elevation at study completion”. For the same compound, the “liver enzymes at study completion” value ([1]; two Grade 2 patients, temporary dose reduction or discontinuation, rechallenged and escalated back to 2403 mg/day) was “normal liver enzymes”, the “resolution of abnormalities after discontinuation” value ([1]; two Grade 3 patients who discontinued for elevated liver function tests, Grade 2 and Grade 3 last documented) was “had not resolved” and the gamma-glutamyl transferase [2] was “Elevated gamma-glutamyl transferase has been observed in some patients receiving pirfenidone, without clinical liver impairment”. For the same compound, the “adverse events in hematology or blood chemistry” value [3] was “No adverse events in hematology or blood chemistry” and the “liver dysfunctions, hematologic abnormalities, allergic or shock reactions during treatment” value [4] was “no liver dysfunctions, hematologic abnormalities, or allergic or shock reactions”.
